Patent US9828412B2, “Short peptide targeting EPS8 binding with EGFR and use thereof” (SOUTHERN MEDICAL UNIVERSITY, priority 2014, dated 2017)
Read-outs that look alike come from different tables or passages of the source. No end group written: not given here.

Columns and labels:
[1] = system: EPS8 overexpression tumor cell line KG1α (human acute myeloid leukemia cell line)
Description: EPS8 overexpression tumor cell line KG1α (human acute myeloid leukemia cell line, purchased from the American Type Culture Collection, ATCC) were selected as target cells, and seeded in 96-well plates at 10,000 cells/well and 100 μL/well. The medium culture was Roswell Park Memorial Institute (RPMI)-1640 containing 10% fetal bovine serum (FBS). […] Then OD values at the wavelength of 490 nm were detected by MTS assay, and KG1α cell viability was calculated.
KG1α cell viability=[(ODexperimental-ODblank control)]/[(ODnegative control-ODblank control)]×100%.

[2] = system: EPS8 overexpression tumor cell line MCF-7 (human breast cancer cell line)
Description: EPS8 overexpression tumor cell line MCF-7 (human breast cancer cell line, purchased from ATCC) were selected as target cells, and seeded in 96-well plates at 10,000 cells/well and 100 μL/well. The medium culture was Dulbecco's Modified Eagle's Medium (DMEM) containing 10% FBS. 8 hours later, short peptide P01 was added at different final concentration of 0, 100, 300 and 500 μg/mL. MCF-7 cells were incubated with short peptide P01 for 24 hours, 48 hours and 72 hours. Then OD values at wavelength of 490 nm were detected by MTS assay, and MCF-7 cell viability was calculated.
MCF-7 cell viability=[(ODexperimental-ODblank control)]/[(ODnegative control-ODblank control)]×100%.

IC50 (KG1α cell viability) ([1]; 24 h): 888.5 µg/mL
IC50 (KG1α cell viability) ([1]; 48 h): 413.9 µg/mL
IC50 (KG1α cell viability) ([1]; 72 h): 335.6 µg/mL
IC50 (MCF-7 cell viability) ([2]; 24 h): 594.2 µg/mL
IC50 (MCF-7 cell viability) ([2]; 48 h): 374.9 µg/mL
IC50 (MCF-7 cell viability) ([2]; 72 h): 304.7 µg/mL
Substance: RKKNKPPPPKK-NH2 [P01, N′-Arg-Lys-Lys-Asn-Lys-Pro-Pro-Pro-Pro-Lys-Lys-NH2-C′]
